Laboratory results from PubChem BioAssay (NCI).
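Following 48 hours of exposure in 96-well plates, responses at five concentrations were used to interpolate endpoints linearly. TGI denotes the concentration required for complete inhibition of growth.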

Legend:
Experiment in all cases: growth of human tumour cells (NCI), 48 h
[1] = test system: OVCAR-8 ovarian
[2] = test system: SR leukemia
[3] = test system: OVCAR-3 ovarian
[4] = test system: SK-MEL-5 melanoma
[5] = test system: UACC-62 melanoma
[6] = test system: HOP-62 NSCLC
[7] = test system: HCC-2998 colon
[8] = test system: SW-620 colon
[9] = test system: HL-60(TB) leukemia
[10] = test system: UO-31 renal
[11] = test system: UACC-257 melanoma
[12] = test system: CCRF-CEM leukemia
[13] = test system: KM12 colon
[14] = test system: SF-539 CNS
[15] = test system: A498 renal
[16] = test system: K-562 leukemia
[17] = test system: SK-OV-3 ovarian
[18] = test system: OVCAR-4 ovarian
[19] = test system: A549 NSCLC
[20] = test system: ACHN renal

Measured: TGI

CC1OC1C(=O)P(=O)(O)O (centres undefined)
> 100 µM: all assays above

CCOC(=O)c1ccc(N2C(=O)/C(=C/c3ccc(N(CCC#N)CCC#N)cc3)N=C2c2cc([N+](=O)[O-])ccc2Cl)cc1
not listed: [9] | [11] | [15]
> 100 µM: all other assays above

Cc1ccccc1NC(=O)C(=O)C(C1OC(=O)c2ccccc21)[N+](=O)[O-] (centres undefined)
not listed: [3]
> 100 µM: all other assays above

NCC(=O)N[C@H]1c2ccsc2/C(=N/O)[C@H]1O
not listed: [13] | [20]
> 100 µM: all other assays above
